Results published in the supplement of paper PMC13207355.
Counter-ions that a name gives are not always drawn.

How the values were obtained:
Conditions in all cases: exposure time: 72 h
[1] = test system: FT3469 (normal neural stem cell line); test: phenotypic distance (Euclidean, principal components) from DMSO controls (arbitrary units); higher = stronger morphological change
[2] = test system: E34 (patient-derived glioblastoma stem cells of proneural subtype); test: as above
[3] = test system: E21 (patient-derived glioblastoma stem cells of mesenchymal subtype); test: as above
[4] = test system: E28 (patient-derived glioblastoma stem cells of classical subtype); test: as above
[5] = test system: E13 (patient-derived glioblastoma stem cells of classical subtype); test: as above
[6] = test system: E57 (patient-derived glioblastoma stem cells of mesenchymal subtype); test: as above
[7] = test system: E31 (patient-derived glioblastoma stem cells of proneural subtype); test: as above
[8] = test system: FT3469; test: surviving fraction (nuclei count normalised to DMSO); higher = more cells surviving (less toxic)
[9] = test system: E34; test: as above
[10] = test system: E21; test: as above
[11] = test system: E28; test: as above
[12] = test system: E13; test: as above
[13] = test system: E57; test: as above
[14] = test system: E31; test: as above
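Wherever phenotypic distance (Euclidean, principal components) from DMSO controls is given: cell Painting imaging in 384-well plates, CellProfiler features reduced to at least 20 principal components, Euclidean distance versus same-plate DMSO vehicle wells (0.1% v/v), median over six images per well.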
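Wherever surviving fraction (nuclei count normalised to DMSO) is given: nuclei counted by high-content imaging of Hoechst-stained cells in laminin-coated 384-well plates, relative to 0.1% DMSO vehicle wells, with staurosporine as cell-death control.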

Cc1c2ccncc2c(C)c2c1[nH]c1ccccc12 [Ellipticine]
Conditions	phenotypic distance	surviving fraction
[1], 4.1 nM	1.04	–
[1], 12.3 nM	0.711	–
[1], 37 nM	0.462	–
[1], 111.1 nM	0.869	–
[1], 333.3 nM	1.18	–
[1], 1000 nM	1.47	–
[1], 3000 nM	1.7	–
[2], 4.1 nM	0.723	–
[2], 12.3 nM	0.43	–
[2], 37 nM	0.492	–
[2], 111.1 nM	0.978	–
[2], 333.3 nM	1.01	–
[2], 1000 nM	1.43	–
[2], 3000 nM	2.39	–
[3], 4.1 nM	1.16	–
[3], 12.3 nM	1.17	–
[3], 37 nM	1.79	–
[3], 111.1 nM	2.04	–
[3], 333.3 nM	2.29	–
[3], 1000 nM	2.28	–
[3], 3000 nM	2.98	–
[4], 4.1 nM	0.578	–
[4], 12.3 nM	0.641	–
[4], 37 nM	0.588	–
[4], 111.1 nM	0.478	–
[4], 333.3 nM	0.804	–
[4], 1000 nM	1.01	–
[4], 3000 nM	2.73	–
[5], 4.1 nM	0.815	–
[5], 12.3 nM	0.556	–
[5], 37 nM	0.741	–
[5], 111.1 nM	0.932	–
[5], 333.3 nM	1.52	–
[5], 1000 nM	2.23	–
[5], 3000 nM	4.47	–
[6], 4.1 nM	1.05	–
[6], 12.3 nM	0.752	–
[6], 37 nM	1.12	–
[6], 111.1 nM	1.64	–
[6], 333.3 nM	1.87	–
[6], 1000 nM	2.3	–
[6], 3000 nM	4.58	–
[7], 4.1 nM	0.486	–
[7], 12.3 nM	0.52	–
[7], 37 nM	0.379	–
[7], 111.1 nM	0.662	–
[7], 333.3 nM	0.789	–
[7], 1000 nM	1.24	–
[7], 3000 nM	2.27	–
[8], 4.1 nM	–	1.13
[8], 12.3 nM	–	1.11
[8], 37 nM	–	1.08
[8], 111.1 nM	–	1.11
[8], 333.3 nM	–	1.3
[8], 1000 nM	–	0.787
[8], 3000 nM	–	0.649
[9], 4.1 nM	–	1.07
[9], 12.3 nM	–	0.94
[9], 37 nM	–	1.04
[9], 111.1 nM	–	0.952
[9], 333.3 nM	–	0.935
[9], 1000 nM	–	0.753
[9], 3000 nM	–	0.534
[10], 4.1 nM	–	0.991
[10], 12.3 nM	–	1.07
[10], 37 nM	–	0.888
[10], 111.1 nM	–	0.831
[10], 333.3 nM	–	0.754
[10], 1000 nM	–	0.72
[10], 3000 nM	–	0.499
[11], 4.1 nM	–	1.11
[11], 12.3 nM	–	1.11
[11], 37 nM	–	1.08
[11], 111.1 nM	–	1.05
[11], 333.3 nM	–	0.967
[11], 1000 nM	–	0.668
[11], 3000 nM	–	0.352
[12], 4.1 nM	–	1.06
[12], 12.3 nM	–	0.896
[12], 37 nM	–	0.936
[12], 111.1 nM	–	0.958
[12], 333.3 nM	–	0.912
[12], 1000 nM	–	0.784
[12], 3000 nM	–	0.473
[13], 4.1 nM	–	0.88
[13], 12.3 nM	–	0.933
[13], 37 nM	–	0.926
[13], 111.1 nM	–	0.959
[13], 333.3 nM	–	0.867
[13], 1000 nM	–	0.784
[13], 3000 nM	–	0.409
[14], 4.1 nM	–	1.02
[14], 12.3 nM	–	0.977
[14], 37 nM	–	1.07
[14], 111.1 nM	–	0.963
[14], 333.3 nM	–	0.768
[14], 1000 nM	–	0.648
[14], 3000 nM	–	0.395

CC[C@H]1CN2CCc3cc(OC)c(OC)cc3[C@@H]2C[C@@H]1C[C@H]1NCCc2cc(OC)c(OC)cc21 [Emetine dihydrochloride hydrate]
Conditions	phenotypic distance	surviving fraction
[1], 4.1 nM	0.688	–
[1], 12.3 nM	0.903	–
[1], 37 nM	0.792	–
[1], 111.1 nM	3.79	–
[1], 333.3 nM	3.87	–
[1], 1000 nM	3.19	–
[1], 3000 nM	3.42	–
[2], 4.1 nM	0.73	–
[2], 12.3 nM	0.706	–
[2], 37 nM	0.904	–
[2], 111.1 nM	2.93	–
[2], 333.3 nM	3.91	–
[2], 1000 nM	4.94	–
[2], 3000 nM	4.59	–
[3], 4.1 nM	1.08	–
[3], 12.3 nM	0.979	–
[3], 37 nM	0.851	–
[3], 111.1 nM	6.33	–
[3], 333.3 nM	4.77	–
[3], 1000 nM	3.91	–
[3], 3000 nM	3.66	–
[4], 4.1 nM	0.561	–
[4], 12.3 nM	0.727	–
[4], 37 nM	1.13	–
[4], 111.1 nM	2.77	–
[4], 333.3 nM	3.25	–
[4], 1000 nM	3.1	–
[4], 3000 nM	3.67	–
[5], 4.1 nM	1.31	–
[5], 12.3 nM	0.882	–
[5], 37 nM	1.91	–
[5], 111.1 nM	4.48	–
[5], 333.3 nM	4.34	–
[5], 1000 nM	5.43	–
[5], 3000 nM	6.58	–
[6], 4.1 nM	1.02	–
[6], 12.3 nM	1.01	–
[6], 37 nM	0.848	–
[6], 111.1 nM	5.15	–
[6], 333.3 nM	6.55	–
[6], 1000 nM	6.5	–
[6], 3000 nM	6.32	–
[7], 4.1 nM	1.22	–
[7], 12.3 nM	1.2	–
[7], 37 nM	2.2	–
[7], 111.1 nM	5.26	–
[7], 333.3 nM	5.72	–
[7], 1000 nM	4.54	–
[7], 3000 nM	5.99	–
[8], 4.1 nM	–	1.12
[8], 12.3 nM	–	1.05
[8], 37 nM	–	0.997
[8], 111.1 nM	–	0.676
[8], 333.3 nM	–	0.511
[8], 1000 nM	–	0.492
[8], 3000 nM	–	0.535
[9], 4.1 nM	–	0.908
[9], 12.3 nM	–	0.885
[9], 37 nM	–	0.818
[9], 111.1 nM	–	0.497
[9], 333.3 nM	–	0.404
[9], 1000 nM	–	0.387
[9], 3000 nM	–	0.426
[10], 4.1 nM	–	0.907
[10], 12.3 nM	–	0.921
[10], 37 nM	–	0.816
[10], 111.1 nM	–	0.347
[10], 333.3 nM	–	0.223
[10], 1000 nM	–	0.153
[10], 3000 nM	–	0.173
[11], 4.1 nM	–	0.969
[11], 12.3 nM	–	1.05
[11], 37 nM	–	0.901
[11], 111.1 nM	–	0.385
[11], 333.3 nM	–	0.258
[11], 1000 nM	–	0.315
[11], 3000 nM	–	0.3
[12], 4.1 nM	–	0.771
[12], 12.3 nM	–	0.923
[12], 37 nM	–	0.769
[12], 111.1 nM	–	0.481
[12], 333.3 nM	–	0.319
[12], 1000 nM	–	0.241
[12], 3000 nM	–	0.2
[13], 4.1 nM	–	0.975
[13], 12.3 nM	–	0.918
[13], 37 nM	–	0.84
[13], 111.1 nM	–	0.354
[13], 333.3 nM	–	0.157
[13], 1000 nM	–	0.173
[13], 3000 nM	–	0.14
[14], 4.1 nM	–	0.927
[14], 12.3 nM	–	0.842
[14], 37 nM	–	0.667
[14], 111.1 nM	–	0.313
[14], 333.3 nM	–	0.143
[14], 1000 nM	–	0.179
[14], 3000 nM	–	0.101

CCn1cc(C(=O)O)c(=O)c2cc(F)c(N3CCNCC3)nc21 [Enoxacin]
Conditions	phenotypic distance	surviving fraction
[1], 4.1 nM	0.513	–
[1], 12.3 nM	0.577	–
[1], 37 nM	0.677	–
[1], 111.1 nM	0.87	–
[1], 333.3 nM	0.641	–
[1], 1000 nM	0.47	–
[1], 3000 nM	0.868	–
[2], 4.1 nM	0.518	–
[2], 12.3 nM	0.658	–
[2], 37 nM	0.667	–
[2], 111.1 nM	0.731	–
[2], 333.3 nM	0.276	–
[2], 1000 nM	0.843	–
[2], 3000 nM	1.19	–
[3], 4.1 nM	0.648	–
[3], 12.3 nM	0.762	–
[3], 37 nM	0.7	–
[3], 111.1 nM	0.554	–
[3], 333.3 nM	0.603	–
[3], 1000 nM	0.823	–
[3], 3000 nM	0.597	–
[4], 4.1 nM	0.627	–
[4], 12.3 nM	0.793	–
[4], 37 nM	0.478	–
[4], 111.1 nM	0.94	–
[4], 333.3 nM	0.292	–
[4], 1000 nM	0.666	–
[4], 3000 nM	0.546	–
[5], 4.1 nM	0.646	–
[5], 12.3 nM	0.69	–
[5], 37 nM	0.539	–
[5], 111.1 nM	0.399	–
[5], 333.3 nM	0.457	–
[5], 1000 nM	0.745	–
[5], 3000 nM	0.954	–
[6], 4.1 nM	0.422	–
[6], 12.3 nM	0.677	–
[6], 37 nM	0.541	–
[6], 111.1 nM	0.821	–
[6], 333.3 nM	0.482	–
[6], 1000 nM	0.537	–
[6], 3000 nM	0.807	–
[7], 4.1 nM	0.556	–
[7], 12.3 nM	0.523	–
[7], 37 nM	0.553	–
[7], 111.1 nM	0.528	–
[7], 333.3 nM	0.401	–
[7], 1000 nM	0.654	–
[7], 3000 nM	0.714	–
[8], 4.1 nM	–	0.928
[8], 12.3 nM	–	0.931
[8], 37 nM	–	0.867
[8], 111.1 nM	–	1.02
[8], 333.3 nM	–	1.06
[8], 1000 nM	–	0.928
[8], 3000 nM	–	0.971
[9], 4.1 nM	–	1.01
[9], 12.3 nM	–	1.07
[9], 37 nM	–	1.09
[9], 111.1 nM	–	0.99
[9], 333.3 nM	–	1.06
[9], 1000 nM	–	1.1
[9], 3000 nM	–	0.885
[10], 4.1 nM	–	0.976
[10], 12.3 nM	–	0.98
[10], 37 nM	–	0.929
[10], 111.1 nM	–	0.973
[10], 333.3 nM	–	0.975
[10], 1000 nM	–	0.987
[10], 3000 nM	–	0.968
[11], 4.1 nM	–	0.921
[11], 12.3 nM	–	1.01
[11], 37 nM	–	0.969
[11], 111.1 nM	–	1.22
[11], 333.3 nM	–	0.982
[11], 1000 nM	–	0.962
[11], 3000 nM	–	0.83
[12], 4.1 nM	–	0.98
[12], 12.3 nM	–	1.08
[12], 37 nM	–	0.82
[12], 111.1 nM	–	1.01
[12], 333.3 nM	–	0.975
[12], 1000 nM	–	0.96
[12], 3000 nM	–	1.05
[13], 4.1 nM	–	1
[13], 12.3 nM	–	1.07
[13], 37 nM	–	1.1
[13], 111.1 nM	–	1.11
[13], 333.3 nM	–	1.06
[13], 1000 nM	–	0.938
[13], 3000 nM	–	0.959
[14], 4.1 nM	–	0.836
[14], 12.3 nM	–	1
[14], 37 nM	–	1.09
[14], 111.1 nM	–	0.95
[14], 333.3 nM	–	1.02
[14], 1000 nM	–	1.19
[14], 3000 nM	–	0.881
